Laboratory results taken from PMC4730408, “Genistein and Glyceollin Effects on ABCC2 (MRP2) and ABCG2 (BCRP) in Caco-2 Cells” (International Journal of Environmental Research and Public …, 2015).

Molecular target: MRP2 (ABCC2, multidrug resistance protein 2) (Homo sapiens, UniProt Q92887)
Assay: calcein retention (calcein-AM) in Caco-2 cells; CDF transport across Caco-2 monolayers
Assay type: cell-based

MRP2 (ABCC2, multidrug resistance protein 2), sequence (Q92887 whole entry): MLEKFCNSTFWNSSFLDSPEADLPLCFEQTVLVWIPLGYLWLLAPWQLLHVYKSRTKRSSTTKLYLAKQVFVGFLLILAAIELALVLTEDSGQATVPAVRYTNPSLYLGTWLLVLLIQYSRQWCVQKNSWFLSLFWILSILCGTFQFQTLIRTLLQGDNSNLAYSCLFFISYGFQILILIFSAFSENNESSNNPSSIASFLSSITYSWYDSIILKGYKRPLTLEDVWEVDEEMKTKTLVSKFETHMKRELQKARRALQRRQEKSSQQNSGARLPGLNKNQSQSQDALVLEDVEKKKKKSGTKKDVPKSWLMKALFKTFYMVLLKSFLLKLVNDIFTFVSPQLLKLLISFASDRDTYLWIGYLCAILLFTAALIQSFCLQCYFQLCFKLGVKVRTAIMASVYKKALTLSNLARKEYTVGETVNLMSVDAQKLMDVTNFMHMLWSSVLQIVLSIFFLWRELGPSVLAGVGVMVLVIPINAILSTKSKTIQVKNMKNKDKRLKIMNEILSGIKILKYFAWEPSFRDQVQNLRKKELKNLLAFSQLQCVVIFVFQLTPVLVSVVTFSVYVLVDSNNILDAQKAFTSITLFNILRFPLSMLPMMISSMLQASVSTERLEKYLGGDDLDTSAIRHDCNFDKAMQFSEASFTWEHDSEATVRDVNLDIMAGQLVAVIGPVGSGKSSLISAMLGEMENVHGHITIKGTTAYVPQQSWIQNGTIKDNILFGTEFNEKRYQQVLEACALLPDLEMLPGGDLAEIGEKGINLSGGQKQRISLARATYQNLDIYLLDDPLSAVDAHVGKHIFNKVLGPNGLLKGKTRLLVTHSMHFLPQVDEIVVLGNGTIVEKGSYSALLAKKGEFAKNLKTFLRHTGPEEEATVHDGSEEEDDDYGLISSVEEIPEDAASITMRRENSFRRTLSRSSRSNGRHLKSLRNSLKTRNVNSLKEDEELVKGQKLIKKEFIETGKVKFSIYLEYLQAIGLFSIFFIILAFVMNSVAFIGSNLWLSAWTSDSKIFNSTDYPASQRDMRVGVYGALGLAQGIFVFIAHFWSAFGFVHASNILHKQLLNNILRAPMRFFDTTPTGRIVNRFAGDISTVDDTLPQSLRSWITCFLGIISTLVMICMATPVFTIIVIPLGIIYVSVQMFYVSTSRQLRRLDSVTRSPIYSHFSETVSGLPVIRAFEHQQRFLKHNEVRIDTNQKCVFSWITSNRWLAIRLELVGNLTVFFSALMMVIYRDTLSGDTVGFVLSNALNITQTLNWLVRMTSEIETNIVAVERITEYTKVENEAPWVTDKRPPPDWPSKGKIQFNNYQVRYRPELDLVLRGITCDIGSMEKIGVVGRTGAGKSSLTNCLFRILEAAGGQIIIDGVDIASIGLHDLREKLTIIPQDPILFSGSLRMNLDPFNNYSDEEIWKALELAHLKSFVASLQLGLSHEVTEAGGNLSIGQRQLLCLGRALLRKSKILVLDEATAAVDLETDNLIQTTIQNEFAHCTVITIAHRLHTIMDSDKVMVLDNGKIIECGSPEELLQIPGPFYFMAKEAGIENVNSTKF

- EC50: 20 µM
SMILES: CN(C)C(=O)CCSC(SCCC(=O)O)c1cccc(/C=C/c2ccc3ccc(Cl)cc3n2)c1 (stereo not shown) [MK-571]
